Here are results for one compound from article PMC8621570, “Mechanistic Studies of Antibiotic Adjuvants Reducing Kidney’s Bacterial Loads upon Systemic Monotherapy” (Pharmaceutics, 2021).

Some results are limits rather than exact numbers.

Data set [1] is described as follows: Hydrophobicity by reversed phase HPLC elution. Format: physicochemical. As to conditions: % acetonitrile required for elution in reversed phase HPLC, C18 column; rounded to nearest whole number.
The subject of data set [2] is E. coli UPEC CFT073. Briefly: Urinary tract infection model. It is filed as in vivo, mouse. Here is the method:
Animals: All animal studies were performed using male ICR mice (25 ± 2 gr). The Technion Animal Care and Use committee approved all procedures, care, and handling of animals. Ethics approval codes: IL0800519, IL0640421, IL0550618, IL1811217.
For efficacy assessments, three infection models were used including one with topical treatment and two with systemic treatment. • Excisional skin wound infection model: mice were anesthetized by intraperitoneal administration of a mixture of ketamine 100 mg/kg and xylazine 5 mg/kg in PBS and their backs shaved with electric clippers. The following day mice were similarly anesthetized and were administrated (S.C) 0.05 mg/kg buprenorphine (for pain relief). A 5 mm diameter piece of skin was removed from the middle of the shaved back, with sterile biopsy punch resulting in a full-thickness injury. A total of 20 µL of a mid-logarithmic culture, containing 5 × 10^6 CFU P. aeruginosa 27853 were applied on the wound. Then, 15 min after inoculation, about 50 µL of hypromellose gel (prepared as described) containing OAC, antibiotic, or their combination were applied on the skin and covered with a piece of medical tape. As a control, the vehicle (drug-free gel) was similarly applied on the skin. After a treatment period of 4 h, about 8 mm diameter of skin surrounding the infected area was removed, suspended in PBS, homogenized, serially diluted 10-fold, and plated for CFU enumeration. The number of viable bacteria was determined after overnight incubation at 37 °C. The lower limit of detection was 50 CFU/wound. • Thigh infection model (TI): mice were inoculated intramuscularly with 1 × 10^6 CFU/mouse of mid-logarithmic E. coli 25922 and treated subcutaneously 1 and 3 h after inoculation. Mice were sacrificed 24 h after infection, their thighs excised, homogenized, serially diluted 10-fold, and plated for CFU enumeration. The number of viable bacteria was determined after overnight incubation at 37 °C. […] The number of viable bacteria was determined after overnight incubation at 37 °C. […]

Data set [3] is described as follows: Blood circulating concentrations (preliminary PK). Format: in vivo, mouse. The conditions noted are these: ICR mice, single S.C 12.5 mg/kg, LC-MS. The procedure: C14(ω5)OOc10O was subjected to preliminary pharmacokinetics (PK) analysis to determine its plasma concentrations or organ bio-distribution following S.C administration to non-neutropenic pathogen-free mice. OAC quantification was performed by LC-MS as follows: blood was drawn at various time intervals and plasma was separated by centrifugation (5000 RCF, 10 min). Organs were excised and homogenized. Then, OAC was extracted from both plasma and organ homogenates by incubation with 50% acetonitrile: 50% methanol at room temperature with shaking for 30 min, and subsequent centrifugation (5000 RCF, 10 min). Supernatants were diluted two-fold in distilled water and analyzed by LC-MS (ULC ultimate 3000 DIONEX, MS BRUKER Maxis impact). Quantification was based on standard calibration curves, prepared by spiking fresh mice plasma (for PK) or water (for organ bio-distribution) with various amounts of the tested OAC (final concentrations from 2.5 to 50 µg/mL) and subjected to an identical procedure as described above.
Figure 10 Systemic efficacy studies using mouse infection models. (a,b) Data points represent colony forming unit (CFU) counts harvested from infected mice (8 and 10 mice per group, respectively). Panel (a) depicts results of the thigh infection model where mice were inoculated intramuscularly with E. coli 25922 (upper dashed line represents the inoculum) and treated subcutaneously with C14(ω5)OOc10O (12.5 mg/kg) at 1 and 3 h post-infection. Panel (b) depicts results of the urinary tract infection model where mice were infected with E. coli UPEC CFT073 by intra-urethral injection and treated subcutaneously with C14(ω5)OOc10O (12.5 mg/kg) at 1 and 6 h post-infection. Solid circles denote mice that died before the experimental endpoint. […] Panels (c,d) show the evolution of C14(ω5)OOc10O concentrations in mouse plasma (c) or in organs (d) after single subcutaneous administration (12.5 mg/kg) to ICR mice (data in c are from two mice/time points except for 60 and 180 that were 8 and 3, respectively) as determined by liquid chromatography–mass spectrometry. […]

In the case of `CCCCC=CCCCCCCCC(=O)N[C@@H](CCCN)C(=O)N[C@@H](CCCN)C(=O)NCCCCCCCCCC(=O)N[C@@H](CCCN)C(N)=O` [C14(ω5)OOc10O], the “H, hydrophobicity” value in data set [1] is 50%. Moreover, the “Effect on bladder CFU counts” value in data set [2] (12.5 mg/kg S.C at 1 and 6 h post-infection, CFU at 24 h) is listed as “not those of the bladder”. Further, in data set [2] (12.5 mg/kg S.C at 1 and 6 h post-infection, CFU at 24 h, 10 mice per group, dead control mice not included), the “Reduction of kidneys' CFU counts” value was > 2 orders of magnitude. In addition, the “Gap of kidneys' CFU counts with the treated group” value in data set [2] (as above, if the two dead PBS-treated control mice were taken into consideration) is listed as “four”. Moreover, the “Time for which potentiating plasma concentrations (>2.5 µM) were maintained after the maximum” value in data set [3] is recorded as “at least 3 h”. The Cmax in data set [3] (mouse, plasma, sc, mean ± SD, read-out: Maximal plasma concentration) is 8.7 ± 2.3 µM. Moreover, the Tmax in data set [3] (mouse, plasma, sc, read-out: Time to maximal plasma concentration) is about 1 h.
